The assay has as its target T1, PGI2 receptor (Homo sapiens, UniProt P43119).
T1 construct: host or cells: thawed 'PGI2 cell' suspension
The assay is described as follows: PGI2 cAMP cell assay in vitro (HTRF cAMP). The class given is cell-based. The settings on record: cells in vitro. The method, then: PGI2 cAMP Cell Assay In Vitro:
A series of cells were placed in a 37° C. water bath for rapid thawing, and the cell suspension was transferred to a 15 mL centrifuge tube containing 10 mL HBSS, and mixed uniformly. The cells were centrifuged at 1000 rpm for 5 minutes at room temperature. The supernatant was removed after centrifugation.
The centrifuge tube was tapped gently to suspend the cells after centrifugation, then the cells were re-suspended with 10 mL HBSS (Hanks buffered saline solution) and mixed uniformly by pipetting up and down. The cells were counted by Vi-cell. The cells were centrifuged for the second time at 1000 rpm for 5 minutes. The cells were re-suspended by experimental buffer to reach a cell concentration of 1.5×10^5/mL.
The samples were diluted with the Bravo automated liquid handling platform to make the initial concentration of the sample reach 2 mM and 5-fold serial dilution at 10 points. The control sample was diluted with Bravo to make the initial concentration of the sample reach 2 mM and 5-fold serial dilution at 10 points.
50 nL DMSO or sample to be tested was transferred to PE384-well OptiPlate by Echo. The cell suspension was transferred to the testing plate by electric pipette, 10 μL cells/well. The testing plate was centrifuged at 1000 rpm […]. The testing plate was incubated at room temperature for 60 minutes. Two kinds of test reagents were added to the testing plate, 5 µL/well. The testing plate was centrifuged at 1000 rpm for 1 minute. The experimental plate was sealed with Top Seal-A film and incubated at room temperature for 60 minutes. TopSeal-A was removed and the value was read on EnVision.
For orientation: TR-FRET usually uses a lanthanide donor and a delayed reading to cut background.

The structures appear in SMILES notation. A value given as a limit tells only on which side of the number the result lay.

T1 sequence (P43119 whole entry, species assumed): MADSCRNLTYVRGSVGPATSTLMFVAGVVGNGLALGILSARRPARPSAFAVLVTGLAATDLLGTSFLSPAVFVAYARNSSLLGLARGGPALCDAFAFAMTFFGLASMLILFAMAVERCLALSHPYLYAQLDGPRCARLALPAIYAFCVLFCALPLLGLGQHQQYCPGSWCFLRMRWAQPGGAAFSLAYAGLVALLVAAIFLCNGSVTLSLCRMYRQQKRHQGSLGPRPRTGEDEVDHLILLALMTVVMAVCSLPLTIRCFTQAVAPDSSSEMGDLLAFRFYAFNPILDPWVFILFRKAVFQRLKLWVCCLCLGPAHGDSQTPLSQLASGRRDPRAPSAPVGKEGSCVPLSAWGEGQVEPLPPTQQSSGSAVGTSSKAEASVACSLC

The term EC50 denotes the midpoint of the concentration-response curve. For `O=C(O)COCC1(F)CCN(c2cncc(C(c3ccccc3)c3ccccc3)n2)CC1` [Compound 50], the EC50 was 5.36 nM.
Next, `COc1ccc(N(c2ccccc2)c2cncc(N3CCC(F)(COCC(=O)O)CC3)n2)nc1` [Compound 34]: 1.9 nM; `COc1ccc(N(c2ccccc2)c2cncc(N3CCC(F)(COCC(=O)O)CC3)n2)cc1` [Compound 23]: 1.1 nM; `COc1ccc(N(c2ccccc2)c2cncc(N3CCC(COCC(=O)O)CC3)n2)cc1` [Compound 5]: 3.74 nM.
Next, `O=C(O)COCC1CCN(c2cncc(N(c3ccccc3)c3ccc(F)c(F)c3)n2)CC1` [Compound 10]: 10.2 nM.
`O=C(O)COCC1CCN(c2cncc(N(c3ccccc3)c3cc(F)cc(F)c3)n2)CC1` [Compound 11] returned an EC50 of 123 nM.
In the case of `COc1cccc(N(c2ccc(F)cn2)c2cncc(N3CCC(F)(COCC(=O)O)CC3)n2)c1` [Compound 29] it was 4.19 nM; in that of `O=C(O)COCC1CCN(c2ccnc(N(c3ccccc3)c3ccccc3)n2)CC1` [Compound 16], 23.5 nM.
Next, `O=C(O)COCC1(F)CCN(c2cncc(N(c3ccc(Cl)cc3)c3ccccn3)n2)CC1` [Compound 41]: 2.94 nM.
`O=C(O)COCC1(F)CCN(c2cncc(N(c3ccccc3)c3ccc(OC(F)F)cc3)n2)CC1` [Compound 20]: the midpoint of the response, the EC50, lay at 1.65 nM.
For `O=C(O)COCC1(F)CCN(c2cncc(N(c3ccccc3)c3nccs3)n2)CC1` [Compound 46], the EC50 came out at 20.1 nM.
`COC(c1ccccc1)(c1ccccc1)c1cncc(N2CCC(F)(COCC(=O)O)CC2)n1` [Compound 51]: the midpoint of the response, the EC50, lay at 322 nM.
In the case of `O=C(O)COCC1(F)CCN(c2cncc(N(c3ccccc3)c3ccc(Cl)cn3)n2)CC1` [Compound 43] it was 1.07 nM; in that of `O=C(O)COCC1(F)CCN(c2cncc(N(c3cccc(Cl)c3)c3ccccn3)n2)CC1` [Compound 28], 2.17 nM.
For `O=C(O)COCC1(F)CCN(c2cncc(N(c3ccccc3)c3cccc(F)n3)n2)CC1` [Compound 31], the EC50 was 1.61 nM.
Next, `O=C(O)COCC1CCN(c2cncc(N(c3ccccc3)c3cccc(Cl)c3)n2)CC1` [Compound 12]: 4.84 nM.
For `O=C(O)COCC1CCN(c2cncc(N(c3ccccc3)c3cccc(OC(F)(F)F)c3)n2)CC1` [Compound 8], the response was half-maximal at 38 nM (EC50).
Next, `CS(=O)(=O)NC(=O)COCC1(F)CCN(c2cncc(N(c3ccccc3)c3ccc(F)cn3)n2)CC1` [Compound 33]: 118 nM; `O=C(O)COC[C@H]1CC[C@H](c2cncc(N(c3ccccc3)c3ccccc3)n2)CC1` [Compound 48b]: 3.72 nM.
For `O=C(O)COCC1(F)CCN(c2cncc(N(c3ccccc3)c3ccccn3)n2)CC1` [Compound 30], the midpoint of the response, the EC50, lay at 3.26 nM.
Consider `O=C(O)COCC1CCN(c2cncc(N(c3ccccc3)c3cccc(OC(F)F)c3)n2)CC1` [Compound 14], for which it took 9.65 nM to reach a half-maximal effect (EC50).
Next, `O=C(O)COCC1(F)CCN(c2cncc(C(O)(c3ccccc3)c3ccccc3)n2)CC1` [Compound 49]: 81 nM; `O=C(O)COCC1CCN(c2cncc(N(c3ccccc3)c3cccc(F)c3)n2)CC1` [Compound 9]: 12.8 nM; `O=C(O)COCC1(F)CCN(c2cncc(N(c3ccccc3)c3ccc(Cl)cc3)n2)CC1` [Compound 25]: 0.8 nM.
Molecule `O=C(O)COCC1(F)CCN(c2cncc(N(c3ccccc3)c3cc(Cl)ccn3)n2)CC1` [Compound 44] yielded an EC50 of 1.98 nM.
In the case of `CCOC(=O)COCC1(F)CCN(c2cncc(N(c3ccccc3)c3ccccc3)n2)CC1` [Compound 19] it was 6.11 nM.
In turn, `O=C(O)COCC1CC=C(c2cncc(N(c3ccccc3)c3ccc(Cl)cc3)n2)CC1` (stereo not shown) [Compound 47] gave an EC50 of 40.1 nM.
With `O=C(O)COCC1CCN(c2cncc(N(c3ccccc3)c3ccc(OC(F)F)cc3)n2)CC1` [Compound 13], the EC50 worked out at 4.17 nM.
Next, `O=C(O)COCC1(F)CCN(c2cncc(N(c3ccccc3)c3ccc(F)cc3)n2)CC1` [Compound 35]: 0.43 nM; `O=C(O)COCC1CCN(c2cncc(N(c3ccccc3)c3ccc(OC(F)(F)F)cc3)n2)CC1` [Compound 6]: 3.55 nM.
Take `O=C(O)COCC1(F)CCN(c2cncc(N(c3ccc(F)cc3)c3ccccn3)n2)CC1` [Compound 40]: the EC50 amounted to 3.2 nM.
Molecule `O=C(O)COCC1(F)CCN(c2cncc(N(c3ccccc3)c3ccc(F)cn3)n2)CC1` [Compound 32] returned an EC50 of 1.41 nM.
Consider `O=C(O)COCC1CCN(c2cccc(N(c3ccccc3)c3ccccc3)n2)CC1` [Compound 15], for which the EC50 is over 2000 nM.
Next, `COc1ccc(N(c2ccccn2)c2cncc(N3CCC(F)(COCC(=O)O)CC3)n2)cc1` [Compound 42]: 2.63 nM; `O=C(O)COCC1(F)CCN(c2cncc(N(c3ccccc3)C3CCCCC3)n2)CC1` [Compound 37]: 34.2 nM; `COc1cccc(N(c2ccccc2)c2cncc(N3CCC(COCC(=O)O)CC3)n2)c1` [Compound 7]: 2.12 nM.
In the case of `O=C(O)COCC1CCN(c2cncc(N(c3ccccc3)c3ccc(Cl)cc3)n2)CC1` [Compound 1], the concentration for a half-maximal effect (EC50) worked out at 2.02 nM.
Next, `O=C(O)COCC1CCN(c2cncc(N(c3ccccc3)c3ccc(F)cc3)n2)CC1` [Compound 3]: 2.09 nM; `COc1cccc(N(c2ccccc2)c2cncc(N3CCC(F)(COCC(=O)O)CC3)n2)c1` [Compound 24]: 0.41 nM; `O=C(O)COCC1(F)CCN(c2cncc(N(c3ccccc3)c3ccccc3)n2)CC1` [Compound 17]: 0.29 nM.
Next, `O=C(O)COCC1CCN(c2nccc(N(c3ccccc3)c3ccc(Cl)cc3)n2)CC1` [Compound 2]: 2990 nM; `COc1ccc(N(c2ccc(Cl)cc2)c2cncc(N3CCC(F)(COCC(=O)O)CC3)n2)nc1` [Compound 38]: 459 nM; `O=C(O)COCC1(F)CCN(c2cncc(N(c3cccc(F)c3)c3ccccn3)n2)CC1` [Compound 27]: 6.74 nM.
In the case of `O=C(O)COCC1(F)CCN(c2cncc(N(c3ccccc3)c3cccc(OC(F)F)c3)n2)CC1` [Compound 21], a half-maximal response (EC50) required 3 nM.
Consider `O=C(O)COCC1CCN(c2cncc(N(c3ccccc3)c3ccccc3)n2)CC1` [Compound 4], for which the EC50 was 2.99 nM.
On to `O=C(O)COC[C@H]1CC[C@@H](c2cncc(N(c3ccccc3)c3ccccc3)n2)CC1` [Compound 48a], for which the EC50 was found to be 18 nM.
`O=C(O)COCC1(F)CCN(c2cncc(N(c3ccc(Cl)cc3)c3ccc(F)cn3)n2)CC1` [Compound 39]: the EC50 is over 300 nM.
In the case of `CS(=O)(=O)NC(=O)COCC1(F)CCN(c2cncc(N(c3ccccc3)c3ccccc3)n2)CC1` [Compound 18] it was 79.9 nM.
Next, `CS(=O)(=O)NC(=O)COCC1(F)CCN(c2cncc(N(c3ccccc3)c3ccc(F)cc3)n2)CC1` [Compound 36]: 4.97 nM; `O=C(O)COCC1(F)CCN(c2cncc(N(c3ccccc3)c3cccc(F)c3)n2)CC1` [Compound 22]: 0.22 nM.
Next, `Cc1ccc(N(c2ccccc2)c2cncc(N3CCC(F)(COCC(=O)O)CC3)n2)nc1` [Compound 45]: 1.55 nM; `O=C(O)COCC1(F)CCN(c2cncc(N(c3ccccc3)c3ccc(OC(F)(F)F)cc3)n2)CC1` [Compound 26]: 3.73 nM.

These data come from US11299475B2, “Prostacyclin receptor agonist” (MEDSHINE DISCOVERY INC., priority 2018, dated 2022).
